Common to all, as to assay type: cell-based
In data set [1] the test system is mouse embryonic fibroblast (NIH/3T3) cell line. The data set is described as follows: cytotoxicity assay (CCK-8). The method, then:
(§1) The MDBK cell line was maintained in 75 cm^2 culture flasks with Minimum Essential Medium Eagle (MEM; Gibco, Grand Island, NY, USA), while Dulbecco’s Modified Eagle’s Medium (DMEM; […] Each medium was supplemented with 10% fetal bovine serum, 0.5% penicillin/streptomycin (Gibco), and an additional 1% glutamine. Every 3 to 4 days, the medium was changed, and the cells were incubated until approximately 80% confluent. The cells were free from mycoplasma contamination after being checked by staining with 4,6-diamidino-2-phenylindole dihydrochloride (DAPI; Sigma-Aldrich, St. Louis). The cell detachment from the culture flask was done using TrypLE^TM Express (Gibco) after washing two times with Dulbecco’s phosphate-buffered saline (DPBS). Subsequently, viable cells were counted using a Neubauer Improved C-Chip (NanoEnTek Inc., Seoul, Korea) after staining with 0.4% trypan blue solution. The drug-exposure viability assay was performed in accordance with the recommendation for the Cell Counting Kit-8 (CCK-8; Dojindo, Kumamoto, Japan). Briefly, in a 96-well plate, 100 µl of cells at a density of 5 × 10^4 cells/ml were seeded per well and allowed to attach to the plate for 24 h at 37 °C in a humidified incubator with 5% CO2. Ten microliters of drug diluted two-fold were added to each well to a final concentration of 0.781 to 800 µM in triplicate. Wells with only a culture medium were used as blanks, while wells containing cells and a medium with 0.5% DMSO were used as positive controls. Drug exposure lasted for 24 h. After 24 h, 10 µl of CCK-8 was added, and the plate was further incubated for 3 h. Absorbance was measured at 450 nm using a microplate reader.

The test system of data set [2] is human foreskin fibroblast (HFF) cell line. The data set is described as follows: cytotoxicity assay (CCK-8). As for the experimental part:
as §1

Data set [3] relates to Theileria equi (USDA strain). The data set is described as follows: in vitro growth inhibition assay (SYBR Green I fluorescence), single drug and 1:1 combination. The method, then: (§2) A microaerophilic stationary-phase culture system was used to maintain Babesia parasite cultures for a long time. Briefly, B. caballi (USDA strain) was grown using equine red blood cells (RBCs) in GIT medium supplemented with 40% equine serum. Theileria equi (USDA strain) was grown in equine RBCs in Medium 199 (M199; Sigma-Aldrich, Tokyo) supplemented with 40% equine serum, and hypoxanthine (MP Biomedicals, Santa Ana, CA, USA) at a final concentration of 13.6 μg/ml was used as a vital supplement. Babesia bovis (Texas strain) and B. bigemina (Argentina strain) were grown in bovine RBCs in M199 medium supplemented with 40% bovine serum. Meanwhile, B. divergens (Germany strain) was grown in bovine RBCs in medium RPMI 1640 (Sigma-Aldrich, Tokyo) supplemented with 40% bovine serum. All media included 60 U/ml penicillin G, 60 μg/ml streptomycin and 0.15 μg/ml amphotericin B (Sigma-Aldrich, St. Louis, MO, USA) to prevent bacterial contamination. The cultures were incubated at 37 °C in a humidified chamber with an atmosphere of 5% CO2, 5% O2 and 90% N2. Babesia microti (Munich strain) was recovered from − 80 °C stock, intraperitoneally injected in two 8-week old female BALB/c mice (Clea Japan, Tokyo, Japan), and the parasitemia was monitored every 2 days. The mice were euthanized using an anesthesia system containing isoflurane after parasitemia reached approximately 30%, and blood was collected by cardiac puncture to initiate the in vivo experiment. The animal experiment was conducted in accordance with the Regulations for Animal Experiments of Obihiro University of Agriculture and Veterinary Medicine, Japan (animal experiment accession number: 290168).
(§3) Assays were performed in accordance with the previously described protocol. Briefly, B. bovis, B. bigemina, B. divergens, B. caballi and T. equi cultures were harvested and adjusted to 1% parasitemia with fresh RBCs to start the inhibition assay. The assays were carried out using 96-well microtiter plates where only the 60 inner wells were used, while the peripheral wells were filled with sterile distillate water to reduce evaporation during incubation. In five 96-well plates, a volume of 2.5 µl each of B. bigemina- and B. bovis-iRBCs and 5 µl each of B. divergens-, B. caballi- and T. equi-iRBCs were added to each well in triplicate and mixed with a culture medium containing the drug concentrations to a total volume of 100 µl. Various concentrations of EA, β-CD EA, APSP EA, DA, CF and AQ were dissolved in a culture medium using two-fold dilution. Wells containing DMSO at a final concentration of 0.4% and iRBCs were used as a positive control, while wells with non-infected RBCs and culture medium were used as a negative control. Additionally, a drug combination assay was performed in parallel with the single drug assay at a constant ratio of 1:1, as described previously. […] The plates were incubated in a humidified incubator with 5% CO2, 5% O2 and 90% N2 for 4 days without changing the medium. On day 4, 100 µl of a lysis buffer containing 2 × SG1 was added to each well. The plates were wrapped with aluminum foil to avoid direct light exposure and incubated at room temperature. After 6 h, fluorescence values were measured using a fluorescence spectrophotometer (Fluoroskan Ascent; Thermo LabSystems, Oceanside, CA, USA) with excitation and emission wavelengths of 485 and 518 nm, respectively. The fluorescence data were subtracted from the negative control and used to calculate the IC50. To calculate the degree of association, the growth-inhibition values obtained were entered into CompuSyn software, based on the combination index (CI) values. […] The experiments were repeated three times.

Data set [4] relates to Babesia bovis (Texas strain). The data set is described as above. As for the experimental part: as §2, §3

Bounds are passed on as bounds.

Take `O=c1oc2c(O)c(O)cc3c(=O)oc4c(O)c(O)cc1c4c23` [EA, Ellagic acid]: the “Selective indices NIH/3T3” value is recorded as above 101.3 in data set [1] (EC50 NIH/3T3 / IC50 B. bigemina), above 83.3 in data set [1] (EC50 NIH/3T3 / IC50 B. bovis), above 148.1 in data set [1] (EC50 NIH/3T3 / IC50 B. divergens) and above 106.7 in data set [1] (EC50 NIH/3T3 / IC50 T. equi). Further, the EC50 in data set [1] (Mus musculus, NIH3T3, NIH/3T3 cells, 24 h exposure, CCK-8) was above 800 µM; in data set [2] (Homo sapiens, HFF cells, 24 h exposure, CCK-8) it was above 800 µM. The “inhibition of cell viability” value in data set [1] (NIH/3T3, 800 µM) is given as “did not show any inhibition”. The “Selective indices HFF” value in data set [2] (EC50 HFF / IC50 B. bigemina) is reported as above 101.3; in data set [2] (EC50 HFF / IC50 B. bovis), above 83.3; in data set [2] (EC50 HFF / IC50 B. divergens), above 148.1; in data set [2] (EC50 HFF / IC50 T. equi) it was above 106.7. Besides, the “concentration that significantly inhibited the growth” value in data set [3] (T. equi, t-test vs control) is reported as 0.125 µM; in data set [4] (B. bovis, t-test vs control), 0.078 µM. Further, the IC50 in data set [3] (Theileria equi, 96 h, T. equi in vitro culture, 4 days) turned out to be 7.46 ± 0.6 µM; in data set [4] (Babesia bovis, in Bos taurus, 96 h, B. bovis in vitro culture, 4 days), 9.58 ± 1.47 µM.

The EC50 is the concentration needed to bring the measured effect to its halfway point. A lower EC50 goes with a more potent agent. A word on the IC50: it is the concentration that inhibits the measured activity by half.

For the origin of these results see paper PMC6537213, “Ellagic acid microspheres restrict the growth of Babesia and Theileria in vitro and Babesia microti in vivo” (Parasites & Vectors, 2019).
